These are literature values, as cited in patent publication US20240197646A1, “DRUG DELIVERY SYSTEM AND METHODS OF USING THE SAME” (Axogen Corporation, priority 2022, published 2024).

For the data set the following is noted: stated reference level, no source or test given.

The structures appear in SMILES notation.

`C=CC[C@@H]1/C=C(\C)C[C@H](C)C[C@H](OC)[C@H]2O[C@@](O)(C(=O)C(=O)N3CCCC[C@H]3C(=O)O[C@H](/C(C)=C/[C@@H]3CC[C@@H](O)[C@H](OC)C3)[C@H](C)[C@@H](O)CC1=O)[C@H](C)C[C@@H]2OC` [FK506]: the toxic dose entry is listed as “about 5 mg/ml”.
